In one assay the target is T1, ErbB3 (Homo sapiens, UniProt P21860).
T1 construct: gift of Dr. Mark A. Lemmon, University of Pennsylvania School of Medicine
Kind of assay: Surface plasmon resonance (Biacore) binding to immobilized ErbB3 extracellular domain. On the procedure: (§1) The designed erbB peptides were tested for binding to erbB receptors using surface plasmon resonance (Biacore) technology (described supra) using soluble erbB-1 and erbB-3. The response was plotted in real time in the form of sensorgram curves.
(§2) Binding experiments were performed with the surface plasmon resonance based biosensor instrument Biacore 3000 (Biacore AB, Uppsala, Sweden), at 25° C. […] (erbB2) and Dr. Mark A. Lemmon, Department of Biochemistry and Biophysics, University of Pennsylvania School of Medicine (erbB1 and erbB3). Immobilization of the erbB receptors in the sensor surface was performed following the standard amine coupling procedure according to manufacturer's instructions. Briefly, 35 μl of a solution containing 0.2 M N-ethyl-N′-(dimethylaminopropyl) carbodiimide (EDC) and 0.05 M N-hydroxysuccinimide (NHS), were injected at a flow rate of 5 μl/min to activate carboxyl groups on the sensor chip surface. Receptors (40 ng/ml in 10 mM NaOAc buffer, pH 5.0) were flowed over the chip surface at a flow rate of 20 μl/min until the desired level bound protein was reached. Unreacted protein was washed out and unreacted activated groups were blocked by the injection of 35 μl of 1 M ethanolamine at 5 μl/min. […] A reference surface was generated simultaneously under the same conditions but without receptor injection and used as a blank to correct for instrument and buffer artifacts. Peptides were injected at variable concentrations at 20 μl/min flow rate and binding to the receptors immobilized on the chip was monitored in real time. Each sensorgram consists of an association phase (first 240 s), reflecting binding of the injected peptide to the receptor, followed by a dissociation phase (300 s), during which the running buffer is passed over the chip and the bound peptide is being washed off the receptor surface.
In general terms: SPR reads the build-up and loss of mass on a sensor chip optically.

Assay [1] addresses T2, erbB3-erbB2 heteromerization (Homo sapiens, UniProt P04626).
T2 construct: the ectodomains of erbB receptors were immobilized on the surface chip; erbB2: Dr. Che Law, Xcyte Therapeutics; erbB3: Dr. Mark A. Lemmon
Kind of assay: SPR inhibition of HRGβ1-induced binding of ErbB3 to immobilized ErbB2. The settings on record: peptide 10 μm, ErbB3 300 nm, HRGβ1 5 μM. On the procedure: (§3) The effect of cysteine-knot mimetics on receptor self-associations, was examined using a Biacore assay in which the ectodomains of erbB receptors were immobilized on the surface chip and the ectodomain of erbB3 was injected at 300 nM concentrations either alone or in the presence of 5 μM hereglunin HRGβ1.
(§4) The effect of the erbB peptides on heregulin-induced receptor self-associations was studied by preinjecting them at 10 μM followed by injection of erbB3-HRGβ1 (FIG. 4; 1B, 2B, 3B).
as §2

Assay [2] deals with T3, erbB3-erbB3 homomerization (Homo sapiens, UniProt P21860).
T3 construct: the ectodomains of erbB receptors were immobilized on the surface chip; erbB3: gift of Dr. Mark A. Lemmon
T3 sequence (P21860 20-643 limits assumed): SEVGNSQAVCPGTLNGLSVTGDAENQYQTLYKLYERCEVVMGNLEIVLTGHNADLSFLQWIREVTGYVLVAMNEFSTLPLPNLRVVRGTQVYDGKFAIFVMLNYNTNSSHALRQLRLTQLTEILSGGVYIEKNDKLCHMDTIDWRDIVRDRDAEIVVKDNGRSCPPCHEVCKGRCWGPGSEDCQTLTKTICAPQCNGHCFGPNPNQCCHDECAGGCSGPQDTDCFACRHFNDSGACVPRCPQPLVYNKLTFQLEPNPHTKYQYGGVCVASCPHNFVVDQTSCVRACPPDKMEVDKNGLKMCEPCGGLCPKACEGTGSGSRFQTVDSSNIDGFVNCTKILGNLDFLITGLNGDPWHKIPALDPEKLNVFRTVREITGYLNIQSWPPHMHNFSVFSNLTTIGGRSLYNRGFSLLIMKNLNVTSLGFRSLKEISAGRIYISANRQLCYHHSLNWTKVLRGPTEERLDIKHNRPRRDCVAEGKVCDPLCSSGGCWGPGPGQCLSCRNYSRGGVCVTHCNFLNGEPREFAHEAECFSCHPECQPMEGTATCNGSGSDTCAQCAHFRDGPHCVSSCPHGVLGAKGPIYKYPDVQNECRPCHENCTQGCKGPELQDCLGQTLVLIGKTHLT
Kind of assay: SPR inhibition of HRGβ1-induced binding of ErbB3 to immobilized ErbB3. The settings on record: peptide 10 μm, ErbB3 300 nm, HRGβ1 5 μM. The protocol: as §3, §4, §2

The target of another assay is T4, ErbB2 (Homo sapiens, UniProt P04626).
T4 construct: provided by Dr. Che Law, Xcyte Therapeutics, Seattle
T4 sequence (P04626 23-652 limits assumed): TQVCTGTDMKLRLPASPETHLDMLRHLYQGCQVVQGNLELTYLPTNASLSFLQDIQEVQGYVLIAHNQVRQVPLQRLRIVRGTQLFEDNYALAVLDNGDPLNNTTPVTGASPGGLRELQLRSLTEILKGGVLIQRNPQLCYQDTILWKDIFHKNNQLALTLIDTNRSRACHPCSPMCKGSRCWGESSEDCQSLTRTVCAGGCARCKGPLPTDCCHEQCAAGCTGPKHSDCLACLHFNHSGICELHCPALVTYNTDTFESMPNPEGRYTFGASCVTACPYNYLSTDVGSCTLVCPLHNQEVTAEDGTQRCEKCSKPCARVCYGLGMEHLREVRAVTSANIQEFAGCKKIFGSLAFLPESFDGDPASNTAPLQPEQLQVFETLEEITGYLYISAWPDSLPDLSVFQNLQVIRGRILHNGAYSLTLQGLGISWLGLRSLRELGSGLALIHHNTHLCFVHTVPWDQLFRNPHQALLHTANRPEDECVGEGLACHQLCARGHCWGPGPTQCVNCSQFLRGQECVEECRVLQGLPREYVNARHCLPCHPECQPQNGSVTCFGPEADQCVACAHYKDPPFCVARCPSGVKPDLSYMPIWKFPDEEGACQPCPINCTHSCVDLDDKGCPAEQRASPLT
Kind of assay: Surface plasmon resonance (Biacore) binding to immobilized ErbB2 extracellular domain. On the procedure: The designed erbB peptides were tested for binding to erbB receptors using surface plasmon resonance (Biacore) technology (described supra) using soluble erbB-1 and erbB-3. The response was plotted in real time in the form of sensorgram curves. Dissociation constants (Kd) were determined as described (Park, et al. 2000, Nat. Biotechnol. 18:194-198).
A sensorgram for binding of B2-S22-APE peptide to erbB receptors immobilized on the sensor chip was performed.
as §2

A further assay addresses T5, ErbB1 (Homo sapiens, UniProt P00533).
T5 construct: gift of Dr. Mark A. Lemmon, University of Pennsylvania School of Medicine
Kind of assay: Surface plasmon resonance (Biacore) binding to immobilized ErbB1 extracellular domain. The protocol: as §1, §2

In assay [3] the target is T6, erbB3-erbB1 heteromerization (Homo sapiens, UniProt P00533).
T6 construct: the ectodomains of erbB receptors were immobilized on the surface chip; erbB1 and erbB3: gift of Dr. Mark A. Lemmon
T6 sequence (P00533 25-645 limits assumed, one chain of several): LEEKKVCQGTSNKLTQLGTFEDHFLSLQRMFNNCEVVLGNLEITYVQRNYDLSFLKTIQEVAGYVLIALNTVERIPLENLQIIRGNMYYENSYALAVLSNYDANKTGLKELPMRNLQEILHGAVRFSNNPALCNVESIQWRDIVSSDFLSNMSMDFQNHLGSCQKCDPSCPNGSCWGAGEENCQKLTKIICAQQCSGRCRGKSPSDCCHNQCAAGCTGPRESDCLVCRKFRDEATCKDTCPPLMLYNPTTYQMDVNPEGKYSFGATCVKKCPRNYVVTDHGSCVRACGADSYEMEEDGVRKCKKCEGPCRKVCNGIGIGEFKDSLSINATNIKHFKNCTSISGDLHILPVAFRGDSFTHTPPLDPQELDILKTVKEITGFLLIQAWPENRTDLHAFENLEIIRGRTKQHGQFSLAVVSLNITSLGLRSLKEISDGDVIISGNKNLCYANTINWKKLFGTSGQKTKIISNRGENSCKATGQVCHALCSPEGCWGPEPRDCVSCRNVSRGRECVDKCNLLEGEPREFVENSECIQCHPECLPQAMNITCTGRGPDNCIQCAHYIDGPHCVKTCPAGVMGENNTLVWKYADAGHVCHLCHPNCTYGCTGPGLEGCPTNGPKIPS
Kind of assay: SPR inhibition of HRGβ1-induced binding of ErbB3 to immobilized ErbB1. Particulars: peptide 10 μm, ErbB3 300 nm, HRGβ1 5 μM. The protocol: as §3, §4, §2

In another assay the target is T7, erbB2-SbdIV (Homo sapiens, UniProt P04626).
T7 construct: The DNA fragment encoding the subdomain IV of erbB2 (erbB2-SbdIV) was generated by polymerase chain reaction; GST (N); made in house; host or cells: Escherichia coli BL-21 (DE3), vector pGEX-5X-3
T7 sequence (P04626 509-657): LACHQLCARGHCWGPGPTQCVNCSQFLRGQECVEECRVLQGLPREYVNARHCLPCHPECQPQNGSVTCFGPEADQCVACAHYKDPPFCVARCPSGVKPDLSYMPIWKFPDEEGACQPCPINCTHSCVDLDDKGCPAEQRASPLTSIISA
Kind of assay: Surface plasmon resonance binding to immobilized recombinant erbB2-SbdIV. The text has this: Since erbB peptides are derived from subdomain IV of different erbB receptors, this fact indicates direct involvement of subdomain IV in receptor-receptor interactions between the members of erbB receptor family.
The DNA fragment encoding the subdomain IV of erbB2 (erbB2-SbdIV) was generated by polymerase chain reaction. The upstream primer was 5′-[…]-3′ [SEQ ID NO: 44] and the downstream primer was 5′-[…]-3′. [SEQ ID NO: 45] These two primers were designed to include BamHI and Not I restriction sites, respectively, for inframe insertion into the BamHI/Not I linearized pGEX-5X-3 vector. Recombinant vector was used to infect Escherichia coli BL-21 (DE3). 100 ml of the 2XYT medium were inoculated with 10 ml of the overnight culture and grown at 37° C. until the OD600 of 0.4-0.5 was reached. IPTG was added to the medium at the final concentration of 0.1 mM and grown for 2 hrs. The cells were spun down by centrifugation at 4,000 g for 10 min and resuspended with 5 ml of cold PBS (with DTT, PMSF and aprotinin at the final concentration of 5 mM, 1 mM and 1 μg/ml respectively). After sonication on ice, Triton X-100 was added to the final concentration of 1% and the solution was rocked at 4° C. for 1 hr and centrifuged at 10,000 g for 10 min. 100 μl of glutathione sepharose bead was then added to the supernatant. It was rocked at 4° C. for 2-4 hrs, centrifuged and washed three times with PBS. 100 μl elution buffer was added followed by rotation for 10 min at room temperature, centrifugation at 300 g for 1 min and collection of the supernatant. Elutions were repeated three times and combined.
Binding experiments were performed with the surface plasmon resonance based biosensor instrument Biacore 3000 (Biacore AB, Uppsala, Sweden), at 25° C. Recombinant purified erbB receptors were provided by Dr. Che Law, Xcyte Therapeutics, Seattle, Wash. […] Peptides were injected at variable concentrations at 20 μl/min flow rate and binding to the receptors immobilized on the chip was monitored in real time. […]

Setting [4] is: immobilized extracellular domain, surface plasmon resonance, read-out: KD (μM) ErbB3.
[5] abbreviates: immobilized extracellular domain, surface plasmon resonance, read-out: KD (μM) ErbB2.
[6] abbreviates: immobilized extracellular domain, surface plasmon resonance, read-out: KD (μM) ErbB1.
Where [7] appears, read: erbB2-SbdIV immobilized on the surface chip, FIG. 3B.
Where [8] appears, read: FIG. 3A, erbB receptors immobilized on the sensor chip, global fitting to 1:1 Langmurian interaction model.

Read-outs that look alike come from different tables or passages of the source. Bridge positions count the residues as written; N and C are the ends. Peptide text beside a SMILES is read from it.

T2 sequence (P04626 23-652 limits assumed, one chain of several): as the sequence (P04626 23-652 limits assumed) above
T1 sequence (P21860 20-643 limits assumed): as the sequence (P21860 20-643 limits assumed) above
T5 sequence (P00533 25-645 limits assumed): as the sequence (P00533 25-645 limits assumed, one chain of several) above

For `CC(C)C[C@@H]1NC(=O)[C@@H](NC(=O)[C@@H](N)Cc2ccc(O)cc2)CSSC[C@@H](C(=O)N[C@@H](Cc2ccc(O)cc2)C(N)=O)NC(=O)CNC(=O)[C@H](C)NC(=O)[C@H](CC(=O)O)NC(=O)[C@H](C)NC(=O)[C@H](Cc2ccc(O)cc2)NC(=O)[C@H](CCCCN)NC(=O)[C@H](Cc2c[nH]c3ccccc23)NC(=O)[C@H](C(C)C)NC1=O` [B1-S22-ALG] (H-YCLVWKYADAGCY-NH2; disulfide 2-12), the equilibrium dissociation constant (Kd) (as a rule, the constant that tells how readily two partners part at equilibrium) on ErbB3 (setting [4]) was 0.288 µM; at ErbB2 (setting [5]), 0.371 µM; at ErbB1 (setting [6]), 0.449 µM. For the same compound, in assay [1], the “Percent Inhibition ErbB2” value is listed as 71.4%. Besides, the “Percent Inhibition ErbB3” value in assay [2] is on record as 75.1%. Also, in assay [3], the “Percent Inhibition ErbB1” value is 65.2%.
In the case of `CC[C@H](C)[C@@H]1NC(=O)[C@@H]2CCCN2C(=O)[C@@H](NC(=O)[C@@H](N)Cc2ccc(O)cc2)CSSC[C@@H](C(=O)N[C@@H](Cc2ccc(O)cc2)C(N)=O)NC(=O)[C@H](CCC(=O)O)NC(=O)[C@H](CCC(=O)O)NC(=O)[C@H](CC(=O)O)NC(=O)[C@@H]2CCCN2C(=O)[C@H](Cc2ccccc2)NC(=O)[C@H](CCCCN)NC(=O)[C@H](Cc2c[nH]c3ccccc23)NC1=O` [B2-S22-APE] (H-YCPIWKFPDEECY-NH2; disulfide 2-12), the dissociation constant (Kd) on erbB2-SbdIV is 1.89 µM; on ErbB3, 1.4 µM; on ErbB2 (KD (μM) ErbB2, immobilized extracellular domain, surface plasmon resonance), 1.53 µM; on ErbB2 (dissociation constant (Kd), FIG. 3A, koff/kon ratio) it was 0.21 µM; at ErbB1, 0.21 µM. In addition, the dissociation rate constant (koff) (commonly the rate constant with which the complex falls apart) worked out at 0.00307 s⁻¹ at erbB2-SbdIV (setting [7]) and 0.000685 s⁻¹ at ErbB2 (setting [8]). Also, the figures for the on-rate constant (kon) on erbB2-SbdIV (setting [7]) and on ErbB2 (setting [8]) were 1620 M⁻¹ s⁻¹ and 3240 M⁻¹ s⁻¹, respectively. Besides, the “Percent Inhibition ErbB2” value in assay [1] is reported as 51.1%. Moreover, in assay [2], the “Percent Inhibition ErbB3” value is 42.7%. The “Percent Inhibition ErbB1” value in assay [3] came to 80.3%.
With `CC[C@H](C)[C@@H]1NC(=O)[C@@H]2CCCN2C(=O)[C@@H](NC(=O)[C@@H](N)Cc2ccc(O)cc2)CSSC[C@@H](C(=O)N[C@@H](Cc2ccc(O)cc2)C(N)=O)NC(=O)[C@H](CCC(N)=O)NC(=O)[C@H](C(C)C)NC(=O)[C@H](CC(=O)O)NC(=O)[C@@H]2CCCN2C(=O)[C@H](Cc2ccc(O)cc2)NC(=O)[C@H](CCCCN)NC(=O)[C@H](Cc2ccc(O)cc2)NC1=O` [B3-S22-APQ] (H-YCPIYKYPDVQCY-NH2; disulfide 2-12), the Kd on ErbB3 (setting [4]) was 1.07 µM; at ErbB2 (setting [5]), 0.549 µM; at ErbB1 (setting [6]), 0.472 µM. Also, in assay [1], the “Percent Inhibition ErbB2” value came to 58.1%. In assay [2], the “Percent Inhibition ErbB3” value was 32.4%. In addition, in assay [3], the “Percent Inhibition ErbB1” value was found to be 69.0%.
As for `CC[C@H](C)[C@@H]1NC(=O)[C@H](Cc2ccccc2)NC(=O)[C@@H](NC(=O)[C@@H](N)Cc2ccc(O)cc2)CSSC[C@@H](C(=O)N[C@@H](Cc2ccc(O)cc2)C(N)=O)NC(=O)[C@H](CC(=O)O)NC(=O)[C@@H]2CCCN2C(=O)[C@H](CC(=O)O)NC(=O)[C@H](C)NC(=O)[C@H](Cc2ccc(O)cc2)NC(=O)[C@H](CCCCN)NC(=O)[C@H](Cc2ccccc2)NC1=O` [B4-S22-AFD] (H-YCFIFKYADPDCY-NH2; disulfide 2-12), the values for the Kd at ErbB3 (setting [4]), on ErbB2 (setting [5]) and on ErbB1 (setting [6]) were 0.394 µM, 0.639 µM and 0.583 µM, respectively. Moreover, the “Percent Inhibition ErbB2” value in assay [1] is recorded as 54.2%. Besides, in assay [2], the “Percent Inhibition ErbB3” value is reported as 72.8%. In assay [3], the “Percent Inhibition ErbB1” value is 60.3%.
Regarding `CC[C@H](C)[C@@H]1NC(=O)[C@H](Cc2ccc(O)cc2)NC(=O)[C@@H](NC(=O)[C@@H](N)Cc2ccccc2)CSSC[C@@H](C(=O)N[C@@H](Cc2ccc(O)cc2)C(N)=O)NC(=O)[C@H](CCC(N)=O)NC(=O)[C@H](CC(=O)O)NC(=O)[C@H](CCC(=O)O)NC(=O)[C@H](C(C)C)NC(=O)[C@H](CCC(=O)O)NC(=O)CNC1=O` [CD4-G, reference compound] (H-FCYIGEVEDQCY-NH2; disulfide 2-11), the Kd at ErbB3 (setting [4]), on ErbB2 (setting [5]) and at ErbB1 (setting [6]) was greater than 1000 µM in each case. Besides, the “Percent Inhibition ErbB2” value in assay [1] is given as −1.2%. For the same compound, the “Percent Inhibition ErbB3” value in assay [2] is 3.1%. In assay [3], the “Percent Inhibition ErbB1” value is 2.4%.

For the origin of these results see US8962793B2, “ErbB interface peptidomimetics and methods of use thereof” (The Trustees of the University of Pennsylvania, priority 2001, dated 2015).
